US20100016285A1, “HETEROCYCLIDENE-N-(ARYL) ACETAMIDE DERIVATIVE” (MOCHIDA PHARMACEUTICAL CO., LTD., priority 2007, published 2010)

Legend:
human TRPV1 = molecular target: T1, human TRPV1 (Homo sapiens, UniProt Q8NER1); experiment: Capsaicin-induced Ca influx in transformed CHO cells, FDSS-6000 (b-1), A2 value; assay type: cell-based; details: concentration shifting the capsaicin concentration-reaction curve two times rightward; CHO cells expressing TRPV1
T1 construct: expressed in transfected cells; host or cells: CHO-K1 cells, pCAGGS vector, clones selected by limiting dilution
Description: (1) Measurement of Capsaicin-Induced Ca Influx in a Transformed CHO Cell Line Expressing Human TRPV1
(a) Establishment of a Transformed CHO Cell Line Expressing Human and Rat TRPV1
Human and rat vanilloid receptor 1 (hTRPV1 and rTRPV1) cDNA was cloned from human brain and rat dorsal root ganglion, respectively. The cloned TRPV1 cDNA was incorporated in a pCAGGS vector. The vector was introduced to a CHO-K1 cell line, thus performing transformation. Clones obtained by limiting dilution were stimulated with capsaicin. Clones with a high responsiveness were selected using an increase in the Ca concentration as an indicator. The selected clones were used for the following experiment.
(b-1) Measurement of Ca Influx using FDSS-6000
The transformed CHO cells expressing human or rat TRPV1 were seeded in a 96-well plate (with black walls and transparent bottoms, manufactured by Greiner) at a density of 40,000 cells per well. The cells were cultured at 37° C. in 5% CO2 atmosphere for one night. A loading solution of FLIPR Calcium 3 assay kit (manufactured by Molecular Devices Corporation) containing 2.5 mmol/L of probenecid was then added to each of the wells in the same amount as the culture medium, and the cells were cultured at 37° C. for 60 minutes. For three minutes after the cells were stimulated with capsaicin (1 nmol/L to 1 μmol/L), the change of the intracellular Ca concentration was measured using FDSS-6000 (λex: 480 nm, λem: […], manufactured by Hamamatsu Photonics K.K.). The integrated values of the increase rate of the intracellular Ca concentration were calculated for a group treated with the compounds of the present invention and a group treated with a vehicle, thus allowing capsaicin concentration-reaction curves to be obtained. A concentration (A2 value) of each of the compounds of the present invention, at which the capsaicin concentration-reaction curve obtained when the cells were treated with the vehicle was shifted two times rightward, was calculated. The inhibitory effects of the test compounds were compared using this value as an indicator.

[1] = Effects on rectal temperature (8-1), oral administration to rats; assay type: in vivo, rat; details: oral single doses of 3, 10 and 30 mg/kg; 30, 60 and 120 minutes; maximum absolute difference vs vehicle
Method: (8-1) Effects on Rectal Temperature
A test compound was orally administered to rats at single doses of 3, 10 and 30 mg/kg. Then rectal temperature was measured 30, 60 and 120 minutes after administration.
Differences of the mean value between a group treated with test substance and a vehicle-treated group were calculated at all measuring points and, based on the maximum absolute value of differences, changes in rectal temperature were divided into the following three categories:
−: the maximum value was less than 0.5 degree Celsius +: the maximum value was more than 0.5 degree but less than 1.0 degree Celsius ++: the maximum value was more than 1.0 degree Celsius

T1 sequence (Q8NER1 whole entry): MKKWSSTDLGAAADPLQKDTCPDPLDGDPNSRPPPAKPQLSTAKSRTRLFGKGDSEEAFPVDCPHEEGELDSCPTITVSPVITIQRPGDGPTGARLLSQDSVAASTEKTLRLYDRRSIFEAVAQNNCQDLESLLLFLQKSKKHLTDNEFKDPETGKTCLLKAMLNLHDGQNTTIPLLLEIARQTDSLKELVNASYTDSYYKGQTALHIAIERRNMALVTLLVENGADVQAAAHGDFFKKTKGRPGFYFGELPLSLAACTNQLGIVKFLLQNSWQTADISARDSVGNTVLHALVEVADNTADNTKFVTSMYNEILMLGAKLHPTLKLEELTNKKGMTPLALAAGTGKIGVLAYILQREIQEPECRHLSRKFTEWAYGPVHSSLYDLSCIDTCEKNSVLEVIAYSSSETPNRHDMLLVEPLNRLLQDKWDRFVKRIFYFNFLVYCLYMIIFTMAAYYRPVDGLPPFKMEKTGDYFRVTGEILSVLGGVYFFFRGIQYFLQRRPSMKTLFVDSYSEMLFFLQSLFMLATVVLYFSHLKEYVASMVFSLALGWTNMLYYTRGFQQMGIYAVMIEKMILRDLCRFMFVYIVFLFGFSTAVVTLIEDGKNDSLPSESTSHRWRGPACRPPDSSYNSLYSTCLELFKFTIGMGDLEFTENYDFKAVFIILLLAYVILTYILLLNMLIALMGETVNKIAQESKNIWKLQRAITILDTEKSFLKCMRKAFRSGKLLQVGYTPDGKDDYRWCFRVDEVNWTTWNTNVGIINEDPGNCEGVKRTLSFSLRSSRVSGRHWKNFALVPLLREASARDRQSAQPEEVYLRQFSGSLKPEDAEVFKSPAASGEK

Structure (SMILES)	A2 value (human TRPV1)	Change in rectal temperature in rats [1]
CC1(C)Nc2ccc(NC(=O)/C=C3\CCCOc4cc(C(F)(F)F)ccc43)cc2NC1=O [EXAMPLE 10, (E)-2-(8-trifluoromethyl-3,4-dihydrobenzo[b]oxepin-5(2H)-ylidene)-N-(3,3-dimethyl-3,4-dihydro-2(1H)-quinoxalinon-7-yl)acetamide]	A (A2 value of less than 100 nM)	+ (the maximum value was more than 0.5 degree but less than 1.0 degree Celsius)
CC1(C)N/C(=C\C(=O)Nc2ccc3c(c2)NC(=O)CC3)c2ccc(C(F)(F)F)cc2O1 [EXAMPLE 26, (Z)-2-(6-trifluoromethyl-3,3-dimethyl-4-oxa-3,4-dihydroisoquinolin-1(2H)-ylidene)-N-(3,4-dihydroquinolin-2(1H)-on-7-yl)acetamide]	A (A2 value of less than 100 nM)	− (the maximum value was less than 0.5 degree Celsius)
O=C(/C=C1\CCOc2cc(C(F)(F)F)ccc21)Nc1ccc2c(c1)NC(=O)CC2 [EXAMPLE 23, (E)-2-(7-trifluoromethylchroman-4-ylidene)-N-(3,4-dihydroquinolin-2(1H)-on-7-yl)acetamide]	A (A2 value of less than 100 nM)	− (the maximum value was less than 0.5 degree Celsius)
O=C(/C=C1\CCCOc2cc(C(F)(F)F)ccc21)Nc1ccc2c(c1)NC(=O)N(CCO)C2 [EXAMPLE 15, (E)-2-(8-trifluoromethyl-3,4-dihydrobenzo[b]oxepin-5(2H)-ylidene)-N-(3-(2-hydroxyethyl)-3,4-dihydro-2(1H)-quinazolinon-7-yl)acetamide]	A (A2 value of less than 100 nM)	− (the maximum value was less than 0.5 degree Celsius)
O=C(/C=C1\CCCOc2cc(C(F)(F)F)ccc21)Nc1ccc2cc(CO)c(=O)[nH]c2c1 [Example 93, (E)-2-(8-trifluoromethyl-3,4-dihydrobenzo[b]oxepin-5(2H)-ylidene)-N-(3-hydroxymethyl-2(1H)-quinolinon-7-yl)acetamide]	–	− (the maximum value was less than 0.5 degree Celsius)
O=C(/C=C1\CCCOc2cc(C(F)(F)F)ccc21)Nc1ccc2c(c1)NC(=O)NC2 [EXAMPLE 13, (E)-2-(8-trifluoromethyl-3,4-dihydrobenzo[b]oxepin-5(2H)-ylidene)-N-(3,4-dihydro-1H-quinazolin-2-on-7-yl)acetamide]	A (A2 value of less than 100 nM)	− (the maximum value was less than 0.5 degree Celsius)
O=C(/C=C1\CCCOc2cc(C(F)(F)F)ccc21)Nc1ccc2c(c1)NC(=O)C(N1CCOCC1)C2 (single isomer, unassigned) [EXAMPLE 35, (E)-2-(8-trifluoromethyl-3,4-dihydrobenzo[b]oxepin-5(2H)-ylidene)-N-(3-(4-morpholinyl)-3,4-dihydro-2(1H)-quinolinon-7-yl)acetamide]	A (A2 value of less than 100 nM)	− (the maximum value was less than 0.5 degree Celsius)
CC1(C)C(=O)Nc2cc(NC(=O)/C=C3\CC4(CCC4)Oc4cc(C(F)(F)F)ccc43)ccc21 [Example 110, (E)-2-(7-trifluoromethyl-spiro[chroman-2,1′-cyclobutane]-4-ylidene)-N-(3,3-dimethyl-2(1H)-indolinon-6-yl)acetamide]	–	− (the maximum value was less than 0.5 degree Celsius)
